Measured values: patent publication US7687465B2, “Therapeutic cancer vaccine” (Kraeftens Bekaempelse, priority 2003, dated 2010)
Ends that are not written are not given here.

What was measured:
HLA-A2 = target: T1, HLA-A2 (Homo sapiens, UniProt P04439, D140Y/D185E/D98H/E176V/E277Q/G131W/G231S/I119V/I121R/I166T/I218V/L300P/L318F/N151K/N90K/P208A/P217A/Q86G/Q94H/R138H/R169H/T345S); assay: Assembly assay for peptide binding to class I MHC molecules; settings: concentration of the peptide required for half maximal binding to HLA-A2; for EC50: read-out: C50
T1 construct: stabilization of the class 1 molecule after loading of peptide to the peptide transporter deficient cell line T2; endogenous in cells; host or cells: T2 (TAP-deficient human cell line), metabolically labelled with [35S]-methionine and lysed
Method: Assembly assays for binding of the synthetic peptides to class I MHC molecules metabolically labeled with [^35S]-methionine can be carried out as described below. It will be appreciated by the person skilled in the art that the protocol may be adopted for any peptide and any class I MHC molecule.
Briefly, TAP deficient cells were metabolically labeled with [^35S]-methionine (Amersham, Freiburg, Germany). The cells were lyzed in 0.5 ml lysis buffer (150 mM NaCl, 50 mM TrisHCl, 0.5% NP-40 (Fluka, Buchs, Switzerland), 5 mM EDTA, pH 7.5) with 0.5% Mega-9 (Sigma, St. Louis, USA) in the presence of protease inhibitors (2 mM PMSF, 5 mM iodoacetamide, 2 μg/ml pepstatin, 2 μg/ml leupeptin) with or without synthetic peptide (for a list of positive control peptides, see Table 2).
After 20 min of incubation, the cell nuclei were removed by centrifugation (5 min, 10,000 g) and 50 μl (10% v/v) freshly washed Staphylococcus aureus organisms (Pansorbin, Calbiochem, Nottingham, UK). The next day Pansorbin was removed by centrifugation (12 min, 16,000 g) and the appropriate monoclonal antibody was added at a final concentration of 10 μg/ml, incubated for 90 min, followed by addition of protein A-Sepharose (75 μl, 10% v/v) and incubation for 1 h. The beads were washed 4 times and stored at −20° C. until analysis by electrophoresis.
In the case of an assembly assay with the HLA class I-specific conformation-dependent monoclonal antibody W6/32, samples were eluted in reducing buffer (9.5 M urea, 2% NP-40, 5% 2-mercaptoethanol, 2% Ampholines, pH range 3.5-9.5 (Pharmacia Biotech, Uppsala, Sweden)) and focused for 16 h at 880 V on 5.5% polyacrylamide isoelectric focusing (IEF) gels^20,39.
Samples from assembly assays with allele-specific antibodies were eluted by boiling (5 min) in SDS reducing buffer (50 mM TrisHCl pH 6.8, 2% SDS, 5% 2-mercaptoethanol, 10% glycerol, 2.5% bromophenol blue) and electrophorezed on 12% SDS-PAGE gels (1 h at 200 V). All gels were fixed in 10% acetic acid with 5% methanol and dried onto 3 MM paper (Whatman, Maidstone, UK). MHC heavy chain bands were quantified using the Imagequant Phosphorimager program (Molecular Dynamics, Sunnyvale, Calif., USA). The intensity of the band is directly related to the amount of peptide-bound class I MHC complex recovered during the assay. C50 value (μM) as the concentration of the peptide required for half maximal binding to MHC may thus be determined. The binding affinities of the analysed peptides are determined according to their efficiency of stabilising the HLA class I molecules. The binding affinity is represented as the peptide concentration required to reach half-maximal stabilistation of appropriate HLA-molecule.
Assembly assays for binding of the synthetic peptides to class I MHC molecules metabolically labeled with [^35S]-methionine were carried out as described^15,16. The assembly assay is based on stabilization of the class 1 molecule after loading of peptide to the peptide transporter deficient cell line T2. Subsequently correctly folded stable MHC heavy chains are immunoprecipitated using conformation-dependent antibodies. After IEF electrophoresis, gels were exposed to phosphorImager screens, and peptide binding was quantitated using the Imagequant PhosphorImager program (Molecular Dynamics, Sunnyvale, Calif.).

[1] = system: peripheral blood T cells or TIL from melanoma patients; assay: ELISPOT IFN-γ secretion assay, T-cell responses against HLA-A2 binding ML-IAP peptides; format: cell-based, human; settings: for strength of spontaneous CTL response: TIL and PBL from melanoma patients, in words; for TIL samples in which a response against the peptide was detected: TIL from melanoma patients (n=22); for TIL samples in which a response against the peptide was detected / PBL samples in which a response against the peptide was detected: stimulated once in vitro with peptide, number of samples; for PBL samples in which a response against the peptide was detected: peripheral blood T cells from melanoma patients (n=7)
Method: Peripheral blood was obtained from melanoma patients before vaccination and subsequent to a series of vaccinations. In order to identify peptide-specific T-cell precursors, peripheral blood lymphocytes (PBL) were used directly in the ELISPOT (designated direct ELISPOT). However, to extend the sensitivity of the ELISPOT assay, PBL were stimulated once in vitro prior to analysis^17,18. At day 0, PBL or crushed lymph nodes were thawed and plated in 2 ml/well at a concentration of 2×10^6 cells in 24-well plates (Nunc, Denmark) in X-vivo medium (Bio Whittaker, Walkersville, Md.), 5% heat-inactivated human serum, and 2 mM of L-glutamine in the presence of 10 μM of peptide. Two days later 20 IU/ml recombinant interleukin-2 (IL-2) (Chiron, Ratingen, Germany) was added to the cultures. The cultured cells were tested for reactivity in the ELISPOT on day 8.
The ELISPOT assay used to quantify peptide epitope specific interferon-7 releasing effector cells was adapted from Lalvani et al.^37, and Scheibenbogen et al.^38. Briefly, nitrocellulose bottomed 96-well plates (MultiScreen MAIP N45, Millipore) were coated overnight at 4° C. with 7.5 μg/ml of anti-IFN-γ antibody (1-D1K, Mabtech, Sweden) in 75 μl sterile PBS. Subsequently, the wells were washed six times with PBS, and non-specific binding were blocked by X-vivo medium for 2 hours at 37° C. Freshly isolated PBL or cells, which had been stimulated once in vitro, were added in duplicates at different cell concentrations (from 10^6 to 10^5 cells per well for non-stimulated PBL, and from 3×10^5-3×10^4 cells per well for PBL which had been stimulated once in vitro), in 100 μl X-vivo medium. Peptides were then added to each well to a final concentration of 2 μM and incubated overnight at 37° C.
The following day, media was discarded and the wells were washed (six times) with PBS containing 0.05% Tween (PBS/Tw) before the addition of biotinylated secondary antibody (7-B6-1-Biotin, Mabtech) at 0.5 μg/ml in 75 μl PBS containing 1% BSA and 0.02% NaN3 (PBS/BSA). The plates were incubated at room temperature for 2 hours. The wells were washed (six times) with PBS/Tw. Then 75 μl of Avidin-enzyme conjugate (AP-Avidin, Calbiochem) diluted 1:2000 in PBS/BSA were added to each well and incubated for 1 hour. The enzyme substrate NBT/BCIP was prepared freshly according to the manufacturers' instructions (Gibco, code 18280-016) and 75 μl were added to each well and incubated for 5-10 min. The reaction was terminated by washing with tap-water upon the emergence of dark purple spots. The spots were then counted using the AlphaImager System (Alpha Innotech, San Leandro, Calif., USA) and the peptide specific CTL frequency could be calculated as the number of spot-forming cells.
To extend the sensitivity of the ELISPOT assay, PBL were stimulated once in vitro prior to analysis^17,18. At day 0, PBL or crushed lymph nodes were thawed and plated in 2 ml/well at a concentration of 2×10^6 cells in 24-well plates (Nunc, Denmark) in X-vivo medium (Bio Whittaker, Walkersville, Md.), 5% heat-inactivated human serum, and 2 mM of L-glutamine in the presence of 10 μM of peptide. Two days later 20 IU/ml recombinant interleukin-2 (IL-2) (Chiron, Ratingen, Germany) was added to the cultures. The cultured cells were tested for reactivity in the ELISPOT on day 12.
The ELISPOT assay used to quantify peptide epitope-specific interferon-γ-releasing effector cells was performed as described previously^19. Briefly, nitrocellulose bottomed 96-well plates (MultiScreen MAIP N45, Millipore, Hedehusene, Denmark) were coated with anti-IFN-7 antibody (1-D1K, Mabtech, Nacka, Sweden). The wells were washed, blocked by X-vivo medium, and cells were added in duplicates at different cell concentrations. Peptides were then added to each well and the plates were incubated overnight. The following day, media was discarded and the wells were washed prior to addition of biotinylated secondary antibody (7-B6-1-Biotin, Mabtech). […]

EC50 (HLA-A2) | Compound | also measured
1 µM | CC(C)C[C@H](NC(=O)CNC(=O)[C@H](CC(C)C)NC(=O)[C@@H](NC(=O)[C@@H]1CCCN1C(=O)[C@H](CO)NC(=O)CNC(=O)[C@H](CC(C)C)NC(=O)[C@@H](N)CO)C(C)C)C(=O)O [ML-IAP34] | 
30 µM | CSCC[C@H](NC(=O)CN)C(=O)NCC(=O)N[C@@H](CO)C(=O)N[C@@H](CCC(=O)O)C(=O)N[C@@H](CCC(=O)O)C(=O)N[C@@H](CC(C)C)C(=O)N[C@@H](CCCNC(=N)N)C(=O)N[C@@H](CC(C)C)C(=O)O [ML-IAP83] | 
> 100 µM | CC(C)C[C@H](NC(=O)[C@@H](N)C(C)C)C(=O)N[C@@H](CCC(=O)O)C(=O)N1CCC[C@H]1C(=O)N1CCC[C@H]1C(=O)NCC(=O)N[C@@H](C)C(=O)N[C@@H](CCCNC(=N)N)C(=O)N[C@@H](CC(=O)O)C(=O)N[C@H](C(=O)O)C(C)C [ML-IAP230] | C50 (μM) (HLA-A2): not able to stabilize the HLA-A2 molecule; strength of spontaneous CTL response [1]: Weaker spontaneous responses; TIL samples in which a response against the peptide was detected [1]: six; PBL samples in which a response against the peptide was detected [1]: two
20 µM | CC[C@H](C)[C@H](NC(=O)[C@@H]1CCCN1C(=O)[C@H](CS)NC(=O)[C@H](CC(C)C)NC(=O)[C@@H](N)CCC(N)=O)C(=O)N[C@@H](CS)C(=O)N[C@@H](CCCNC(=N)N)C(=O)N[C@@H](C)C(=O)N1CCC[C@H]1C(=O)N[C@H](C(=O)O)C(C)C [ML-IAP280] | 

Further lines, the compound ahead of its results:

Compound | EC50 (HLA-A2) | also measured
CC[C@H](C)[C@H](NC(=O)[C@@H](N)CCC(N)=O)C(=O)N[C@@H](CC(C)C)C(=O)NCC(=O)N[C@@H](CCC(N)=O)C(=O)N[C@@H](CC(C)C)C(=O)N[C@@H](CCCNC(=N)N)C(=O)N1CCC[C@H]1C(=O)N[C@@H](CC(C)C)C(=O)O [ML-IAP54] | 1 µM | 
CC(C)C[C@H](NC(=O)[C@@H]1CCCN1C(=O)[C@H](Cc1c[nH]c2ccccc12)NC(=O)[C@H](CC(=O)O)NC(=O)[C@H](Cc1ccc(O)cc1)NC(=O)[C@H](Cc1ccccc1)NC(=O)[C@H](CO)NC(=O)[C@H](C)NC(=O)[C@H](CC(C)C)NC(=O)[C@@H](N)CCCNC(=N)N)C(=O)O [ML-IAP90] | 0.2 µM | strength of spontaneous CTL response [1]: Weaker spontaneous responses; TIL samples in which a response against the peptide was detected [1]: seven; PBL samples in which a response against the peptide was detected [1]: two
CC(C)C[C@H](NC(=O)[C@H](CCC(=O)O)NC(=O)[C@@H]1CCCN1C(=O)[C@@H]1CCCN1C(=O)[C@@H](NC(=O)[C@H](CCC(=O)O)NC(=O)[C@H](C)NC(=O)[C@@H](NC(=O)[C@H](CC(C)C)NC(=O)[C@@H]1CCCN1)[C@@H](C)O)C(C)C)C(=O)O [ML-IAP98] | > 100 µM | 
CC(C)C[C@H](NC(=O)[C@H](CCC(=O)O)NC(=O)[C@@H]1CCCN1C(=O)[C@@H]1CCCN1C(=O)[C@@H](NC(=O)[C@H](CCC(=O)O)NC(=O)[C@H](C)NC(=O)[C@@H](NC(=O)[C@@H](N)CC(C)C)[C@@H](C)O)C(C)C)C(=O)O [ML-IAP99] | 0.9 µM | 
CC(C)C[C@H](NC(=O)[C@@H](N)CC(C)C)C(=O)N[C@@H](CCCNC(=N)N)C(=O)N[C@@H](CO)C(=O)N[C@@H](CCCCN)C(=O)NCC(=O)N[C@@H](CCCNC(=N)N)C(=O)N[C@@H](CC(=O)O)C(=O)N[C@@H](Cc1ccccc1)C(=O)N[C@H](C(=O)O)C(C)C [ML-IAP154] | 10 µM | 
ELPTPRREV [ML-IAP200] |  | C50 (μM) (HLA-A2; listed as MLIAP200): did not bind
SIVFVPCG [ML-IAP261] |  | C50 (μM) (HLA-A2; listed as MLIAP261): did not bind
